The results in this text go back to patent US20140283583A1, “SYSTEM FOR PIPELINE DRYING AND FREEZING POINT SUPPRESSION” (WEATHERFORD/LAMB, INC., priority 2007, published 2014).

Data set [1] has as its system Mysidopsis bahia. Particulars: 800 mg/L.
For data set [2], the system named is Menidia beryllina. Particulars: 800 mg/L.
The conditions of data set [3]: FIG. 1, compared with methanol and ethylene glycol.
For data set [4] the following is noted: 50% w/w solution in water.

For `O=C[O-].[K+]` [potassium formate], the “larval survival and growth toxicity testing (normality tests)” value in data set [1] and in data set [2] was “passed the normality tests” throughout. Further, the methane hydrate suppression result in data set [3] was “between ethylene glycol and methanol”. For the same compound, the freezing point result in data set [4] was “around −60 °C”.
